Earlier results as cited in US10028900B2, “Photostable sunscreen composition for topical application” (KANCOR INGREDIENTS LTD, priority 2014, dated 2018).

Details: oil / water

Solubility (in words) | Structure (SMILES)
oil soluble and water insoluble | COc1ccc(C(=O)CC(=O)c2ccc(C(C)(C)C)cc2)cc1 [Avobenzone, 1-(4-methoxyphenyl)-3-(4-tert-butylphenyl)propane-1,3-dione]
oil soluble and water insoluble | CCCCC(CC)COC(=O)/C=C/c1ccc(OC)cc1 (centres unmarked) [Octyl-methoxy cinnamate, 2-ethylhexyl (2E)-3-(4-methoxyphenyl) prop-2-enoate]
